Assay results as given in patent US9206396B2, “Methods and devices for quantitative viral assays” (Wisconsin Alumni Research Foundation, priority 2005, dated 2015).
Converted amounts (≈) assume the structure as drawn. “Also recorded” adds a separate entry of the source. Like-named read-outs stand apart in the source and are kept apart here.

Legend:
Assay in all cases: microbe, parasite or virus in culture
Format in all cases: cell-based, recombinant VSV in BHK cells
rVSV-GFP [1] = system: rVSV-GFP
rVSV-GFP [2] = system: rVSV-GFP; remark: listed apart in the source
rVSV-GFP [3] = system: rVSV-GFP; remark: listed apart in the source

With O=c1[nH]cc(F)c(=O)[nH]1 [5-fluorouracil] the “Detection of comets at 16 μg/ml” value (rVSV-GFP [1]) was “comets could no longer be detected”, the “Inhibition of VSV comet formation” value (rVSV-GFP [1]) was “Dose-dependent inhibition; also recorded: inhibited the formation of comets in a dose-dependent manner” and the IC50 (rVSV-GFP [1]; Vesicular stomatitis virus, read-out: 50 percent inhibition concentration (IC50), virus infectivity, comet assay) was 1 µg/mL (≈ 7.69 µM). The “Infection at drug concentration of 16 μg/ml, yield assay” value (rVSV-GFP [2]) was “retained detectable infection”, the IC50 (rVSV-GFP [2]; Vesicular stomatitis virus, read-out: IC50, drug concentration required to reduce the virus yield by 50%) was 4 µg/mL (≈ 30.8 µM) and the “Infection at drug concentration of 16 μg/ml, plaque assay” value (rVSV-GFP [3]) was “retained detectable infection”. For the same compound, the IC50 (rVSV-GFP [3]; Vesicular stomatitis virus, read-out: IC50, drug concentration required to reduce the number of plaques by 50%) was 16 µg/mL (≈ 123 µM).
